This note sets out measurements from article PMC4790384, “Position-Dependent Influence of the Three Trp Residues on the Membrane Activity of the Antimicrobial Peptide, Tritrpticin” (Antibiotics, 2014).

In brackets after ≈: the same amount, converted by molar mass. Ends that are not written are not given here. Bounds are passed on as bounds.

The experiment deals with E. coli ATCC 25922. In kind it is cell-based, Escherichia coli. Here is the method: The minimum inhibitory concentration (MIC) of Tritrp1 and its Trp-substituted analogs against E. coli ATCC 25922 was measured by the standard broth microdilution method. Bacteria (5 × 10^5 CFU/mL) were incubated overnight at 37 °C in Mueller-Hinton broth (MHB) and in the presence of peptides diluted in a two-fold concentration series ranging from 0.25–128 µM in a 96-well polypropylene plate. The reported MIC values correspond to the minimum peptide concentration where bacterial growth was not observed. After overnight incubation, 10 µL from the first three wells without bacterial growth for each peptide in the MIC plate were diluted 1:10^6 in MHB, and 100 µL of this dilution was plated in MHB-agar. After incubation overnight at 37 °C, the minimum bactericidal concentration (MBC) was reported as the minimum peptide concentration where no colony formation was detected.
Consider `CC(C)C[C@H](NC(=O)[C@H](Cc1ccccc1)NC(=O)[C@@H]1CCCN1C(=O)[C@H](Cc1c[nH]c2ccccc12)NC(=O)[C@H](Cc1c[nH]c2ccccc12)NC(=O)[C@H](Cc1c[nH]c2ccccc12)NC(=O)[C@@H]1CCCN1C(=O)[C@H](Cc1ccccc1)NC(=O)[C@H](CCCNC(=N)N)NC(=O)[C@H](CCCNC(=N)N)NC(=O)[C@@H](N)C(C)C)C(=O)N[C@@H](CCCNC(=N)N)C(=O)N[C@@H](CCCNC(=N)N)C(N)=O` [Tritrp1, reference compound], for which the MBC (in general, the lowest tested concentration that kills the bacteria rather than only halting them) was 4 µM (≈ 7.61 µg/mL) and the minimum inhibitory concentration (MIC) (usually the smallest concentration in the dilution series that meets the test's criterion for growth inhibition) turned out to be 4 µM (≈ 7.61 µg/mL). Compound VRRFPAAAPFLRR-NH2 [A-Tritrp] had an MBC of over 128 µM and a minimal inhibitory concentration (MIC) of over 128 µM.

VRRFPAAWPFLRR-NH2 [Peptide W67A] showed an MBC of 64 to 128 µM and a minimum inhibitory concentration (MIC) of 64 to 128 µM. VRRFPAWAPFLRR-NH2 [Peptide W68A] showed an MBC of 64 to 128 µM and an MIC of 64 to 128 µM. In turn, VRRFPAWWPFLRR-NH2 [Peptide W6A] displayed a minimal bactericidal concentration (MBC) of 32 to 64 µM and a minimum inhibitory concentration (MIC) of 32 to 64 µM. VRRFPWAAPFLRR-NH2 [Peptide W78A] registered an MBC of 64 to 128 µM and an MIC of 64 to 128 µM.

In turn, VRRFPWAWPFLRR-NH2 [Peptide W7A] gave an MBC of 16 µM and an MIC of 16 µM.

For the compound VRRFPWWAPFLRR-NH2 [Peptide W8A], the minimum bactericidal concentration (MBC) came to 8 µM and the minimum inhibitory concentration (MIC) turned out to be 8 µM. As to VRRFPWWYPFLRR-NH2 [Peptide W8Y], the MBC turned out to be 4 µM and the MIC is given as 4 µM. With VRRFPWYWPFLRR-NH2 [Peptide W7Y], the minimum bactericidal concentration (MBC) was 8 µM and the MIC was found to be 8 µM. Consider VRRFPWYYPFLRR-NH2 [Peptide W78Y], for which the MBC is 16 µM and the MIC stood at 16 µM. In turn, VRRFPYWWPFLRR-NH2 [Peptide W6Y] registered an MBC of 16 µM and an MIC of 16 µM.

VRRFPYWYPFLRR-NH2 [Peptide W68Y]: the MBC is recorded as 16 µM and the MIC is on record as 16 µM. As to VRRFPYYWPFLRR-NH2 [Peptide W67Y], the MBC came out at 32 µM and the minimal inhibitory concentration (MIC) is listed as 32 µM. With VRRFPYYYPFLRR-NH2 [Y-Tritrp], the minimal bactericidal concentration (MBC) is 16 to 32 µM.
